Measurements: patent US9845310B2 (priority 2015, dated 2017)

Molecular target: APJ (Homo sapiens (Human), UniProt P35414)
Assay: [35S]GTPγS binding assay on membranes from CHO cells stably expressing human APJ receptor
Format: biochemical
Details: Activity hAPJ SPA EC50 IP (μM)
Procedure: A GTPγS binding assay was performed on membranes prepared from CHO cells stably expressing human APJ receptor. The optimum experimental conditions for the concentrations of GDP, MgCl2, and NaCl in the assay buffer were initially determined. The assay was performed in assay buffer [20 mM HEPES, pH 7.5, 5 mM MgCl2, and 0.1% (w/v) BSA with 200 mM NaCl, 3 M GDP] and membranes expressing human APJ receptor/well along with WGA PS beads. The reaction was initiated by addition of 0.2 nM [^35S]GTPγS (Perkin Elmer Life and Analytical Sciences, Waltham USA) in the absence or presence of various ligands and incubated at RT for 90 min. Nonspecific binding was determined in the presence of 100 M GTPγS and was always less than 0.2% of total binding.

Chain of APJ (P35414 whole entry): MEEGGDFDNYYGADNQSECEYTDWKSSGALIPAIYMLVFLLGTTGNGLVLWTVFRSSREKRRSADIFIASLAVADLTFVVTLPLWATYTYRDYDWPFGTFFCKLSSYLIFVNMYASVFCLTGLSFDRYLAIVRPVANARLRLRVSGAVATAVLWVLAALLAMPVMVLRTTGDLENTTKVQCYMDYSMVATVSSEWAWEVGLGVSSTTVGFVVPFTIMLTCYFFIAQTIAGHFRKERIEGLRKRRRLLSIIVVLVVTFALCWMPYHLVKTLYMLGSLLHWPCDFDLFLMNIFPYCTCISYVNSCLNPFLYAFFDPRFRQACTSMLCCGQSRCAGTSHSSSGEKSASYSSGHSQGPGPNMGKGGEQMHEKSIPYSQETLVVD

Compound	EC50
COc1cccc(-c2nnc(NS(=O)(=O)C[C@H](O)c3ccc(F)cc3S(C)(=O)=O)n2-c2c(OC)cccc2OC)n1 (mixture of isomers) [Example 267.0, (R)-N-(4-(2,6-dimethoxyphenyl)-5-(6-methoxypyridin-2-yl)-4H-1,2,4-triazol-3-yl)-2-(4-fluoro-2-(methylsulfonyl)phenyl)-2-hydroxyethanesulfonamide and (S)-N-(4-(2,6-dimethoxyphenyl)-5-(6-methoxypyridin-2-yl)-4H-1,2,4-triazol-3-yl)-2-(4-fluoro-2-(methylsulfonyl)phenyl)-2-hydroxyethanesulfonamide]	0.00015 µM
COc1cccc(-c2nnc(NS(=O)(=O)[C@@H](C)[C@H](O)c3ccc(F)cc3)n2-c2c(OC)cccc2OC)n1 (mixture of isomers) [Example 283.0]	0.00096 µM
COc1cccc(-c2nnc(NS(=O)(=O)C[C@H](O)c3ccc(F)cn3)n2-c2c(OC)cccc2OC)n1 (mixture of isomers) [Example 315.0, (2R)-N-(4-(2,6-dimethoxyphenyl)-5-(6-methoxy-2-pyridinyl)-4H-1,2,4-triazol-3-yl)-2-(5-fluoro-2-pyridinyl)-2-hydroxyethanesulfonamide and (2S)-N-(4-(2,6-dimethoxyphenyl)-5-(6-methoxy-2-pyridinyl)-4H-1,2,4-triazol-3-yl)-2-(5-fluoro-2-pyridinyl)-2-hydroxyethanesulfonamide]	0.00032 µM
COc1cccc(-c2nnc(NS(=O)(=O)C[C@H](OC)c3ccc(F)cn3)n2-c2c(OC)cccc2OC)n1 (mixture of isomers) [Example 328.0, (2R)-N-(4-(2,6-dimethoxyphenyl)-5-(6-methoxy-2-pyridinyl)-4H-1,2,4-triazol-3-yl)-2-(5-fluoro-2-pyridinyl)-2-methoxyethanesulfonamide and (2S)-N-(4-(2,6-dimethoxyphenyl)-5-(6-methoxy-2-pyridinyl)-4H-1,2,4-triazol-3-yl)-2-(5-fluoro-2-pyridinyl)-2-methoxyethanesulfonamide]	0.00033 µM
COc1cccc(-c2nnc(NS(=O)(=O)C[C@H](O)c3ccc(C#N)cn3)n2-c2c(OC)cccc2OC)n1 (mixture of isomers) [Example 331.0, (R)-2-(5-cyanopyridin-2-yl)-N-(4-(2,6-dimethoxyphenyl)-5-(6-methoxypyridin-2-yl)-4H-1,2,4-triazol-3-yl)-2-hydroxyethanesulfonamide and (S)-2-(5-cyanopyridin-2-yl)-N-(4-(2,6-dimethoxyphenyl)-5-(6-methoxypyridin-2-yl)-4H-1,2,4-triazol-3-yl)-2-hydroxyethanesulfonamide]	0.00024 µM
COc1cccc(-c2nnc(NS(=O)(=O)[C@H](C)[C@@H](O)C3CC3)n2-c2c(OC)cccc2OC)n1 (mixture of isomers) [Example 438.0]	0.052 µM
COc1cccc(OC)c1-n1c(NS(=O)(=O)C[C@H](O)c2ccc(Cl)cc2S(C)(=O)=O)nnc1-c1cncc(C)c1 (mixture of isomers) [Example 457.0, (2R)-2-(4-chloro-2-(methylsulfonyl)phenyl)-N-(4-(2,6-dimethoxyphenyl)-5-(5-methyl-3-pyridinyl)-4H-1,2,4-triazol-3-yl)-2-hydroxyethanesulfonamide and (2S)-2-(4-chloro-2-(methylsulfonyl)phenyl)-N-(4-(2,6-dimethoxyphenyl)-5-(5-methyl-3-pyridinyl)-4H-1,2,4-triazol-3-yl)-2-hydroxyethanesulfonamide]	0.0003 µM
COc1cccc(-c2nnc(NS(=O)(=O)C[C@H](O)c3ccc(C#N)cc3S(C)(=O)=O)n2-c2c(OC)cccc2OC)n1 (mixture of isomers) [Example 481.0, (2S)-2-(4-cyano-2-(methylsulfonyl)phenyl)-N-(4-(2,6-dimethoxyphenyl)-5-(6-methoxy-2-pyridinyl)-4H-1,2,4-triazol-3-yl)-2-hydroxyethanesulfonamide and (2R)-2-(4-cyano-2-(methylsulfonyl)phenyl)-N-(4-(2,6-dimethoxyphenyl)-5-(6-methoxy-2-pyridinyl)-4H-1,2,4-triazol-3-yl)-2-hydroxyethanesulfonamide]	0.00024 µM
COc1cccc(-c2nnc(NS(=O)(=O)C[C@H](OC)c3ccc(C#N)cc3S(C)(=O)=O)n2-c2c(OC)cccc2OC)n1 (mixture of isomers) [Example 484.0, (2R)-2-(4-cyano-2-(methylsulfonyl)phenyl)-N-(4-(2,6-dimethoxyphenyl)-5-(6-methoxy-2-pyridinyl)-4H-1,2,4-triazol-3-yl)-2-methoxyethanesulfonamide and (2S)-2-(4-cyano-2-(methylsulfonyl)phenyl)-N-(4-(2,6-dimethoxyphenyl)-5-(6-methoxy-2-pyridinyl)-4H-1,2,4-triazol-3-yl)-2-methoxyethanesulfonamide]	0.00026 µM
COc1cccc(OC)c1-n1c(NS(=O)(=O)[C@@H](C)[C@H](OC)c2ccc(Cl)cn2)nnc1-c1cccnc1 (mixture of isomers) [Example 529.0, (1S,2R)-1-(5-chloro-2-pyridinyl)-N-(4-(2,6-dimethoxyphenyl)-5-(3-pyridinyl)-4H-1,2,4-triazol-3-yl)-1-methoxy-2-propanesulfonamide and (1R,2S)-1-(5-chloro-2-pyridinyl)-N-(4-(2,6-dimethoxyphenyl)-5-(3-pyridinyl)-4H-1,2,4-triazol-3-yl)-1-methoxy-2-propanesulfonamide]	0.00048 µM
COc1cnc([C@H](O)[C@@H](C)S(=O)(=O)Nc2nnc(-c3cccnc3)n2-c2c(OC)cccc2OC)cn1 (mixture of isomers) [Example 703.0, (1R,2S)-N-(4-(2,6-dimethoxyphenyl)-5-(3-pyridinyl)-4H-1,2,4-triazol-3-yl)-1-hydroxy-1-(5-methoxy-2-pyrazinyl)-2-propanesulfonamide and (1S,2R)-N-(4-(2,6-dimethoxyphenyl)-5-(3-pyridinyl)-4H-1,2,4-triazol-3-yl)-1-hydroxy-1-(5-methoxy-2-pyrazinyl)-2-propanesulfonamide]	0.002 µM
COc1cccc(-c2nnc(NS(=O)(=O)[C@H](C)[C@@H](O)c3cc(C)n(C)n3)n2-c2c(OC)cccc2OC)n1 (racemic) [Example 260.0, (1S,2R)-N-(4-(2,6-dimethoxyphenyl)-5-(6-methoxypyridin-2-yl)-4H-1,2,4-triazol-3-yl)-1-(1,5-dimethyl-1H-pyrazol-3-yl)-1-hydroxypropane-2-sulfonamide and (1R,2S)-N-(4-(2,6-dimethoxyphenyl)-5-(6-methoxypyridin-2-yl)-4H-1,2,4-triazol-3-yl)-1-(1,5-dimethyl-1H-pyrazol-3-yl)-1-hydroxypropane-2-sulfonamide]	0.0024 µM
COc1cccc(-c2nnc(NS(=O)(=O)[C@@H](C)[C@H](C)c3ncc(F)cn3)n2-c2cn(C)c3ccccc23)n1 (racemic) [Example 451.0, (2S,3R)-3-(5-fluoro-2-pyrimidinyl)-N-(5-(6-methoxy-2-pyridinyl)-4-(1-methyl-1H-indol-3-yl)-4H-1,2,4-triazol-3-yl)-2-butanesulfonamide and (2R,3S)-3-(5-fluoro-2-pyrimidinyl)-N-(5-(6-methoxy-2-pyridinyl)-4-(1-methyl-1H-indol-3-yl)-4H-1,2,4-triazol-3-yl)-2-butanesulfonamide]	0.045 µM
CC#C[C@@H](O)[C@H](C)S(=O)(=O)Nc1nnc(-c2cncc(C)c2)n1-c1c(OC)cccc1OC (racemic) [Example 764.0, (2R,3S)-N-(4-(2,6-dimethoxyphenyl)-5-(5-methyl-3-pyridinyl)-4H-1,2,4-triazol-3-yl)-3-hydroxy-4-hexyne-2-sulfonamide and (2S,3R)-N-(4-(2,6-dimethoxyphenyl)-5-(5-methyl-3-pyridinyl)-4H-1,2,4-triazol-3-yl)-3-hydroxy-4-hexyne-2-sulfonamide]	0.027 µM
COc1cccc(-c2nnc(NS(=O)(=O)[C@@H](C)[C@H](OC(C)C)c3ncc(C)cn3)n2-c2c(OC)cccc2OC)n1 (single isomer, unassigned) [Example 96.0]	0.00026 µM
COc1cccc(-c2nnc(NS(=O)(=O)[C@H](C)[C@@H](OC(C)C)c3ncc(C)cn3)n2-c2c(OC)cccc2OC)n1 (single isomer, unassigned) [Example 97.0]	0.002 µM
COc1cccc(-c2nnc(NS(=O)(=O)[C@H](C)[C@H](OC(C)C)c3ncc(C)cn3)n2-c2c(OC)cccc2OC)n1 (single isomer, unassigned) [Example 98.0]	0.0099 µM

Same assay, conditions: read-out: Activity hAPJ SPA EC50 IP

Compound	EC50
COc1cccc(-c2nnc(NS(=O)(=O)[C@H](C)[C@@H](O)c3cn(C)cn3)n2-c2c(OC)cccc2OC)n1 (mixture of isomers) [Example 258.0, (1S,2R)-N-(4-(2,6-dimethoxyphenyl)-5-(6-methoxypyridin-2-yl)-4H-1,2,4-triazol-3-yl)-1-hydroxy-1-(1-methyl-1H-imidazol-4-yl)propane-2-sulfonamide and (1R,2S)-N-(4-(2,6-dimethoxyphenyl)-5-(6-methoxypyridin-2-yl)-4H-1,2,4-triazol-3-yl)-1-hydroxy-1-(1-methyl-1H-imidazol-4-yl)propane-2-sulfonamide]	0.002 µM
COc1cccc(-c2nnc(NS(=O)(=O)[C@H](C)[C@H](O)c3cn(C)cn3)n2-c2c(OC)cccc2OC)n1 (mixture of isomers) [Example 259.0, (1R,2R)-N-(4-(2,6-dimethoxyphenyl)-5-(6-methoxypyridin-2-yl)-4H-1,2,4-triazol-3-yl)-1-hydroxy-1-(1-methyl-1H-imidazol-4-yl)propane-2-sulfonamide and (1S,2S)-N-(4-(2,6-dimethoxyphenyl)-5-(6-methoxypyridin-2-yl)-4H-1,2,4-triazol-3-yl)-1-hydroxy-1-(1-methyl-1H-imidazol-4-yl)propane-2-sulfonamide]	0.011 µM
COc1cccc(-c2nnc(NS(=O)(=O)[C@@H](C)[C@H](OC)c3ccc(C#N)cc3C#N)n2-c2c(OC)cccc2OC)n1 (mixture of isomers) [Example 473.0]	0.00023 µM
